# Laboratory results from US20260327243A1, “SPIRO-HETEROCYCLIC INHIBITORS OF KRAS G12C MUTANT PROTEINS AND USES THEREOF” (AMGEN INC., priority 2023, published 2026).
# Experiments:
# KRAS^G12C = KRAS^G12C (Homo sapiens, UniProt P01116, C118A/G12C); experiment: Coupled Nucleotide Exchange Assay; assay type: biochemical; conditions: GDP-bound KRAS (aa 1-169) G12C/C118A; 2 h compound pre-incubation; SOS-mediated exchange, 30 min; cRAF binding (AlphaLISA)
# How it was run: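 GDP-bound His-tagged KRAS aa 1-169 (G12C/C118A) pre-incubated 2 h with compound in 25 mM HEPES pH 7.4, 10 mM MgCl2, 0.01% Triton X-100 (±0.1% BSA), then SOS (aa 564-1049) plus GTP added for 30 min. GST-cRAF RBD binding read by AlphaLISA; DMSO-normalized, 4-parameter fit gives IC50.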
# MIA PaCa-2 cells = experiment: Cell Viability Assay, MIA PaCa-2; assay type: cell-based; conditions: Homo sapiens, MIA PaCa-2, 72 h, human pancreatic carcinoma, CellTiter-Glo
# Description: (§1) MIA PaCa-2 (human pancreatic carcinoma; ATCC CRL-1420) or A549 (human lung carcinoma; ATCC CCL-185) cells were cultured in RPMI 1640 medium containing 10% fetal bovine serum and 1×penicillin/streptomycin/L-glutamine. Cells were seeded in 384-well plates at a density of 1.67E+04 cells/mL and incubated at 37° C., 5% CO2, overnight. Serially-diluted compound or DMSO was added to the cells, and plates were incubated at 37° C., 5% CO2 for 72 h. Cell viability was measured using a CellTiter-Glo® Luminescent Cell Viability Assay kit (Promega) according to the manufacturer's protocol. The luminescence signal of treated samples was normalized to DMSO control, and data were analyzed using a 4-parameter logistic model to calculate IC50 values.
# (§2) The following data (Table 3) categorizes the IC50 of each compound for inhibiting enzymatic activity of KRAS^G12C in the indicated cells.
# A549 cells = experiment: Cell Viability Assay, A549; assay type: cell-based; conditions: A549; human lung carcinoma; 72 h; CellTiter-Glo
# Description: as §1, §2
# Sequence of KRAS^G12C (P01116 1-169 isoform P01116-2 G12C/C118A): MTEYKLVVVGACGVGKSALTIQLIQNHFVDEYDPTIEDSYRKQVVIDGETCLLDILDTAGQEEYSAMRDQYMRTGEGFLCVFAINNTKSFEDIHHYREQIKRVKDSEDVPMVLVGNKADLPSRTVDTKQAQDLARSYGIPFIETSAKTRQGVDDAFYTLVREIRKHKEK
SMILES,IC50 (KRAS^G12C) [nM],IC50 (MIA PaCa-2 cells) [nM],IC50 (A549 cells) [nM]
"C=CC(=O)N1CCN([C@@H]2CN(c3cc(N4CCC5(C[C@H]4C)OCC=C5C)nc(C(F)F)n3)[C@@H]2C)CC1 (stereo partly drawn) [Compound 3-003, 1-(4-((2R,3R)-1-(2-(Difluoromethyl)-6-((7R)-4,7-dimethyl-1-oxa-8-azaspiro[4.5]dec-3-en-8-yl)pyrimidin-4-yl)-2-methylazetidin-3-yl)piperazin-1-yl) prop-2-en-1-one]",512,832,> 5000
C=CC(=O)N1CCN(C2CN(c3cc(N4CCC5(CC4)c4ccccc4CN5C)nc(C(F)(F)F)c3C#N)C2)CC1 [Compound 3-014],498,694,> 5000
C=CC(=O)N1CCN(C2CN(c3cc(N4CCC5(CC4)COc4ccccc45)nc(C(F)(F)F)c3C#N)C2)CC1 [Compound 3-015],669,2760,> 5000
C=CC(=O)N1CCN(C2CN(c3cc(N4CCC5(CCC(=O)N5)CC4)nc(C(F)(F)F)c3C#N)C2)CC1 [Compound 3-016],969,> 5000,> 5000
"C=CC(=O)N1CCN(C2CN(c3cc(N4CCC5(CC4)CC(Br)=NO5)nc(C(F)(F)F)c3C#N)C2)CC1 [Compound 3-017, 4-(3-(4-acryloylpiperazin-1-yl)-azetidin-1-yl)-6-(3-bromo-1-oxa-2.8-diazaspiro[4.5]dec-2-en-8-yl)-2-(trifluoromethyl)nicotinonitrile]",828,1990,> 5000
"C=CC(=O)N1CCN(C2CN(c3cc(N4CCC5(CC4)OCc4ccccc45)nc(C(F)(F)F)c3C#N)C2)CC1 [Compound 3-028, 4-(3-(4-acryloylpiperazin-1-yl)azetidin-1-yl)-6-(3H-spiro[isobenzofuran-1,4′-piperidin]-1′-yl)-2-(trifluoromethyl)nicotinonitrile]",1790,1340,> 3330
"C=CC(=O)N1CCN(C2CN(c3cc(N4CCC5(CCCO5)CC4)nc(C(F)(F)F)c3C#N)C2)CC1 [Compound 3-039, 4-(3-(4-acryloylpiperazin-1-yl)azetidin-1-yl)-6-(1-oxa-8-azaspiro[4.5]decan-8-yl)-2-(trifluoromethyl)nicotinonitrile]",1650,2410,> 5000
C=CC(=O)N1CCN(C2CN(c3cc(N4CCC5(CC4)OCc4cnccc45)nc(C(F)(F)F)c3C#N)C2)CC1 [Compound 3-043],1590,1290,> 5000
"C=CC(=O)N1CCN(C2CN(c3cc(N4CCC5(CC4)OCc4cnn(C)c45)nc(C(F)(F)F)c3C#N)C2)CC1 [Compound 3-049, 4-(3-(4-acryloylpiperazin-1-yl)azetidin-1-yl)-6-(1-methyl-1,4-dihydrospiro[furo[3,4-c]pyrazole-6,4′-piperidin]-1′-yl)-2-(trifluoromethyl)nicotinonitrile]",664,979,> 5000
"C=CC(=O)N1CCN(C2CN(c3cc(N4CCC5(CC4)OCCC5F)nc(C(F)(F)F)c3C#N)C2)CC1 (stereo not drawn) [Compound 3-058, 4-(3-(4-Acryloylpiperazin-1-yl)azetidin-1-yl)-6-(4-fluoro-1-oxa-8-azaspiro[4.5]decan-8-yl)-2-(trifluoromethyl)nicotinonitrile]",920,> 5000,> 5000
"C=CC(=O)N1CCN(C2CN(c3cc(N4CCC5(CCC(=O)N5C)CC4)nc(C(F)(F)F)c3C#N)C2)CC1 [Compound 3-075, 4-(3-(4-Acryloylpiperazin-1-yl)azetidin-1-yl)-6-(1-methyl-2-oxo-1,8-diazaspiro[4.5]decan-8-yl)-2-(trifluoromethyl)nicotinonitrile]",704,2800,> 5000

# Now those with a lower IC50 (KRAS^G12C), led by results:
IC50 (KRAS^G12C) [nM],IC50 (MIA PaCa-2 cells) [nM],IC50 (A549 cells) [nM],SMILES
154,527,> 5000,"C=CC(=O)N1CCN(C2CN(c3cc(N4CCC5(CC4)c4ccccc4C(=O)N5C)nc(C(F)(F)F)c3C#N)C2)CC1 [Compound 3-004, 4-(3-(4-Acryloylpiperazin-1-yl)azetidin-1-yl)-6-(2-methyl-3-oxospiro[isoindoline-1,4′-piperidin]-1′-yl)-2-(trifluoromethyl)nicotinonitrile]"
184,626,> 5000,"C=CC(=O)N1CCN([C@@H]2CN(c3cc(N4CCC5(C[C@H]4C)OCC=C5C)nc(C(F)(F)F)n3)[C@@H]2C)CC1 (stereo partly drawn) [Compound 3-005, 1-(4-((2R,3R)-1-(6-(4.7-dimethyl-1-oxa-8-azaspiro[4.5]dec-3-en-8-yl)-2-(trifluoromethyl)pyr-imidin-4-yl)-2-methylazetidin-3-yl)piperazin-1-yl)prop-2-en-1-one]"
253,1140,> 5000,"C=CC(=O)N1CCN(C2CN(c3cc(N4CCC5(CC4)OCc4ncsc45)nc(C(F)(F)F)c3C#N)C2)CC1 [Compound 3-046, 4-(3-(4-Acryloylpiperazin-1-yl)azetidin-1-yl)-6-(4H-spiro[furo[3,4-d]thiazole-6,4′-piperidin]-1′-yl)-2-(trifluoromethyl)nicotinonitrile]"
102,284,> 5000,"C=CC(=O)N1CCN(C2CN(c3cc(N4CCC5(CC4)OCC=C5C)nc(C(F)(F)F)c3C#N)C2)CC1 [Compound 3-051, 4-(3-(4-Acryloylpiperazin-1-yl)azetidin-1-yl)-6-(4-methyl-1-oxa-8-azaspiro[4.5]dec-3-en-8-yl)-2-(trifluoromethyl)nicotinonitrile]"
161,254,4550,"C=CC(=O)N1CCN([C@@H]2CN(c3cc(N4CCC5(CC4)OCC=C5C)nc(C(F)(F)F)c3C#N)[C@@H]2C)CC1 [Compound 3-052, 4-((2R,3R)-3-(4-Acryloylpiperazin-1-yl)-2-methylazetidin-1-yl)-6-(4-methyl-1-oxa-8-azaspiro[4.5]dec-3-en-8-yl)-2-(trifluoromethyl)nicotinonitrile]"
191,755,> 5000,"C=CC(=O)N1CCN(C2CN(c3cc(N4CCC5(CC4)OC(C)C=C5C)nc(C(F)(F)F)c3C#N)C2)CC1 (stereo not drawn) [Compound 3-053, 4-(3-(4-Acryloylpiperazin-1-yl)azetidin-1-yl)-6-(2,4-dimethyl-1-oxa-8-azaspiro[4.5]dec-3-en-8-yl)-2-(trifluoromethyl)nicotinonitrile]"
288,272,> 5000,"C=CC(=O)N1CCN([C@@H]2CN(c3cc(N4CCC5(CC4)OCC=C5C)nc(C(F)F)c3C)[C@@H]2C)CC1 [Compound 3-057, 1-(4-((2R,3R)-1-(2-(Difluoromethyl)-3-methyl-6-(4-methyl-1-oxa-8-azaspiro[4.5]dec-3-en-8-yl)pyridin-4-yl)-2-methylazetidin-3-yl)piperazin-1-yl) prop-2-en-1-one]"
215,582,> 5000,"C=CC(=O)N1CCN(C2CN(c3cc(N4CCC5(C=CCO5)CC4)nc(C(F)(F)F)c3C#N)C2)CC1 [Compound 3-059, 4-(3-(4-Acryloylpiperazin-1-yl)azetidin-1-yl)-6-(1-oxa-8-azaspiro[4.5]dec-3-en-8-yl)-2-(trifluoromethyl)nicotinonitrile]"
184,936,> 5000,"C=CC(=O)N1CCN([C@@H]2CN(c3cc(N4CCC5(CC4)OCC=C5C)nc(C(F)(F)F)n3)[C@@H]2C)CC1 [Compound 3-061, 1-(4-((2R,3R)-2-Methyl-1-(6-(4-methyl-1-oxa-8-azaspiro[4.5]dec-3-en-8-yl)-2-(trifluoromethyl)pyrimidin-4-yl)azetidin-3-yl)piperazin-1-yl)prop-2-en-1-one]"
423,1160,> 5000,"C=CC(=O)N1CCN([C@@H]2CN(c3cc(N4CCC5(CC4)OCCC5=C)nc(C(F)(F)F)n3)[C@@H]2C)CC1 [Compound 3-074, 1-(4-((2R,3R)-2-Methyl-1-(6-(4-methylene-1-oxa-8-azaspiro[4.5]decan8-yl)-2-(trifluoromethyl)pyrimidin-4-yl)azetidin-3-yl)piperazin-1-yl) prop-2-en-1-one]"
72,214,> 5000,"C=CC(=O)N1CCN([C@@H]2CN(c3cc(N4CCC5(CC4)OCCn4ncc(C)c45)nc(C(F)(F)F)n3)[C@@H]2C)CC1 [Compound 3-076, 1-(4-((2R,3R)-2-Methyl-1-(6-(3′-methyl-6′,7′-dihydrospiro[piperidine-4,4′-pyrazolo[5,1-c][1,4]oxazin]-1-yl)-2-(trifluoromethyl)pyrimidin-4-yl)azetidin-3-yl)piperazin-1-yl)prop-2-en-1-one]"
21,182,> 5000,"C=CC(=O)N1CCN([C@@H]2CN(c3cc(N4CC[C@]5(C[C@H]4C)OCCn4ncc(C)c45)nc(C(F)(F)F)n3)[C@@H]2C)CC1 [Compound 3-077, 1-(4-((2R,3R)-1-(6-((2R,4R)-2,3′-dimethyl-6′,7′-dihydro-1H-spiro[piperidine-4,4′-pyrazolo[5,1-c][1,4]oxazin]-1-yl)-2-(trifluoromethyl)-4-pyrimidinyl)-2-methyl-3-azetidinyl)-1-piperazinyl)-2-propen-1-one]"
